Measurements: patent publication US20100331338A1, “Glucokinase Activators” (Merck Patent GMBH, priority 2008, published 2010)

Biological target: T1, hGK (Homo sapiens, UniProt P35557)
T1 sequence (P35557 1-465): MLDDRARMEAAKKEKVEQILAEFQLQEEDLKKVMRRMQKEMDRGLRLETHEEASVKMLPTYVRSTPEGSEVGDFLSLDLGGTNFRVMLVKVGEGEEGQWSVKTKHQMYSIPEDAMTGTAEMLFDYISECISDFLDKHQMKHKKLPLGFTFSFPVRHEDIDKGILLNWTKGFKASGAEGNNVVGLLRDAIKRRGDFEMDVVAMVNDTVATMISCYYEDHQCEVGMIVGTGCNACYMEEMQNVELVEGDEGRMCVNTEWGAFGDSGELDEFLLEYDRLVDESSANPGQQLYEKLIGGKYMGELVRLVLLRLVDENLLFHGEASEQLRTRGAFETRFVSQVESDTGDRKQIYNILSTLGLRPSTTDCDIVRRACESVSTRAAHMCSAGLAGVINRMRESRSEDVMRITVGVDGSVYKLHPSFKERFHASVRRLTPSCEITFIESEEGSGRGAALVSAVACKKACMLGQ
Test: Glucokinase Activation Screening Assay (coupled enzyme assay with PK/LDH)
Format: biochemical
Settings: 2 mM glucose; for hGK fold activation at 30 μM: fold activation at 30 μM compound
Experimental: Glucokinase Activation Screening Assay
GK activity (human or rat enzyme) is measured by a coupled enzyme assay using pyruvate kinase (PK) and lactate dehydrogenase (LDH) as coupling enzymes. GK activity is calculated from the decline in NADH monitored photometrically with a microtiter plate (MTP) reader at 340 nm.
For screening purposes, the GK assay is routinely run in a 384-MTP format, in a total volume of 33 μl/well. 10 μl of the ATP-regeneration solution (in HEPES-buffer*, pH 7.0, 6.73 U/ml pyruvate kinase, 6.8 U/ml lactate dehydrogenase) and 10 μl of the glucokinase-/glucose solution (15 μg/ml, 6.6 mM glucose in HEPES-buffer*, pH 7.0; the concentration of the glucose stock-solution was 660 mM in Millipore H2O) were mixed together with […] of a 10% DMSO solution (in HEPES-buffer*, pH 7.0) containing 3.3-fold the amounts of the compounds to achieve final compound concentrations in the range between 1 nM to 30 μM (sometimes 300 μM) in the assay solution (s. below). The solutions were mixed for 5 sec, and after a centrifugation at 243×g for 5 min, the solutions were preincubated for 25 min at room temperature.
The reaction was started by the addition of 10 μl of the NADH-/ATP-solution (4.29 mM NADH, 4.95 mM ATP, in HEPES-buffer*). The MTP was shaken for 5 sec., and then, the absorbance at 340 nm was monitored continuously in a MTP-reader (TECAN Spectro fluor plus) for the next 27 min (with a MTP-cycling time of 199 sec.). The final concentrations of the various components were as follows: 49.5 mM Hepes, pH 7.0, 1.49 mM PEP,1,3 mM NADH, 49.5 mM KCl, 4.96 mM MgCl2, 1.5 mM Mg-ATP, 1.98 mM DTT, 2.04 U/ml pyruvate kinase, 2.06 U/ml lactate-dehydrogenase, 0.91% DMSO, 0.15 μg/well glucokinase, and test compounds in the range between 1 nM and 300 μM.
The change in the optical density (ΔOD340 nm) in the presence of the compound was expressed relative to the ΔOD340 nm, ctrl of the control incubation (in the presence of 2 mM glucose and 0.91% DMSO), taking into account the optical density of the blank sample (incubation in the absence of 2 mM glucose). For the determination of the half maximal effective concentration (EC50), the %-Ctrl-values were plotted in a semi-logarithmic graph against the conc. of the compound of interest. The data points were fitted to a sigmoid curve function (f(x)=((%-Ctrlmax%-Ctrlmin)/(1−(EC50/x**^n(Hill)))+%-Ctrlmin)) by a non-linear regression analysis.
* Hepes-buffer (50 mM Hepes, pH 7.0, 5 mM MgCl2, 50 mM KCl, 1.5 mM PEP, 0.1% BSA). DTT was added to the Hepes-buffer from a 200× stock solution (in Millipore H2O) freshly each day. The final concentration of DTT in the Hepes-buffer is 2 mM.

| hGK fold activation at 30 μM | EC50 [µM] | SMILES |
| --- | --- | --- |
| 2.1 | – | CCCc1cc(C(=O)Nc2nc(CC(=O)O)cs2)cs1 [Example 46, {2-[(5-Propyl-thiophene-3-carbonyl)-amino]-thiazol-4-yl}-acetic acid] |
| 6.4 | 3.9 | CCN(CC)S(=O)(=O)c1cc(C(=O)Nc2nccs2)sc1C [Example 48, 4-Diethylsulfamoyl-5-methyl-thiophene-2-carboxylic acid thiazol-2-ylamide] |
| 1.3 | – | Cc1sc(C(=O)Nc2nccs2)cc1S(=O)(=O)NCc1ccccc1 [Example 49, 4-Benzylsulfamoyl-5-methyl-thiophene-2-carboxylic acid thiazol-2-ylamide] |
| 2.6 | 3.9 | Cc1sc(C(=O)Nc2nccs2)cc1S(=O)(=O)N(C)C [Example 50, 4-Dimethylsulfamoyl-5-methyl-thiophene-2-carboxylic acid thiazol-2-ylamide] |
| 2.1 | 10 | CCCOc1sc(C(=O)Nc2nccs2)cc1S(C)(=O)=O [Example 52, 4-Methanesulfonyl-5-propoxy-thiophene-2-carboxylic acid thiazol-2-ylamide] |
| 5.6 | 10 | CCCc1cc(C(=O)Nc2nccs2)cs1 [Example 53, 5-Propyl-thiophene-3-carboxylic acid thiazol-2-ylamide] |
